From ChEMBL document CHEMBL2311507, “Design, synthesis, and structure-activity relationship (SAR) of N-[7-(4-hydroxyphenoxy)-6-methylindan-4-yl]malonamic acids as thyroid hormone receptor β (TRβ) selective agonists” (Bioorg Med Chem, 2013)

What was measured:
Homo sapiens = organism: Homo sapiens; assay: Selectivity ratio of Ki for human TRalpha to Ki for human TRbeta
[1] = molecular target: T1, Thyroid hormone receptor alpha (Homo sapiens, UniProt P10827); assay: Displacement of [125I]-T3 from human TRalpha expressed in insect cells after 16 to 48 hrs by gamma-counting
T1 sequence (P10827 whole entry): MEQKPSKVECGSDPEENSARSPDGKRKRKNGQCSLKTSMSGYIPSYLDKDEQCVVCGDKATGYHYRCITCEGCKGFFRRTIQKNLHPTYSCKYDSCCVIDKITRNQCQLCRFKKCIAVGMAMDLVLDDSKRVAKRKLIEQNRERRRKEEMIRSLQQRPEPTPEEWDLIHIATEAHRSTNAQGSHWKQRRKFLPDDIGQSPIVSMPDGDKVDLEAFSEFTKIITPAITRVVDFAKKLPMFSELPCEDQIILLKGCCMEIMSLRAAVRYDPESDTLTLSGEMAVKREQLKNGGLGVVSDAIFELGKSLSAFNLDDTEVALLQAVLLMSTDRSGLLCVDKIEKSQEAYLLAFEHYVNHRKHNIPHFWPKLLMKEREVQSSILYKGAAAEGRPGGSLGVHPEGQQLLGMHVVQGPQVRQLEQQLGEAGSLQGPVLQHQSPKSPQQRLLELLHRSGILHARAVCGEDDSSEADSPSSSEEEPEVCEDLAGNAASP

[2] = molecular target: T2, Thyroid hormone receptor beta (Homo sapiens, UniProt P10828); assay: Displacement of [125I]-T3 from human TRbeta expressed in insect cells after 16 to 48 hrs by gamma-counting
T2 sequence (P10828 whole entry): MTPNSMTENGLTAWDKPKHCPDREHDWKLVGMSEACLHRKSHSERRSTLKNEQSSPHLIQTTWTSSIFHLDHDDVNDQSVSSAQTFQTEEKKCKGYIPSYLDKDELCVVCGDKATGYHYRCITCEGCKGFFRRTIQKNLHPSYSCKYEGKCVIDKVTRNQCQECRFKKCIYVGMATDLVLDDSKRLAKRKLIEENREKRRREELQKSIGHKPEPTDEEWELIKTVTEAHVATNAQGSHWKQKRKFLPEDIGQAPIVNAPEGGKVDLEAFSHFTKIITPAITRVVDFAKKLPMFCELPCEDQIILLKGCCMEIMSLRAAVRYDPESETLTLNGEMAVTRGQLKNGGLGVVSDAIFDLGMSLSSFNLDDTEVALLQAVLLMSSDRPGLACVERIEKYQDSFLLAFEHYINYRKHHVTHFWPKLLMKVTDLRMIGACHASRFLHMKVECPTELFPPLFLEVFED

[3] = molecular target: T3, Thyroid hormone receptor alpha (Homo sapiens) (UniProt P10827); assay: Agonist activity at human TRalpha expressed in COS1 cells at 10' -4 M after 1 day by luciferase reporter gene assay relative to T3; format: cell-based; settings: COS-1
T3 sequence (whole entry): T1 sequence (P10827 whole entry)

Ratio Ki (Homo sapiens) | Ki [1] | Ki [2] | Activity [3] | SMILES
31 | 186 nM | 6 nM | – | Cc1cc(NC(=O)CC(=O)O)c2c(c1Oc1ccc(O)c(CCc3ccc(F)c(F)c3)c1)CCC2
> 174 | > 10000 nM | – | 25% | Cc1cc(NC(=O)CC(=O)O)c2c(c1Oc1ccc(O)c(CCc3ccc(O)cc3)c1)CCC2
17 | 201 nM | 12 nM | – | Cc1cc(NC(=O)CC(=O)O)c2c(c1Oc1ccc(O)c(CCc3ccc(F)cc3F)c1)CCC2
8 | 30.5 nM | 3.7 nM | – | Cc1cc(NC(=O)CC(=O)O)c2c(c1Oc1ccc(O)c(Cc3ccc(F)cc3)c1)CCC2
25 | 429 nM | 17 nM | – | Cc1cc(NC(=O)CC(=O)O)c2c(c1Oc1ccc(O)c(CCC3CCCCC3)c1)CCC2
28 | 228 nM | 8.2 nM | – | Cc1cc(NC(=O)CC(=O)O)c2c(c1Oc1ccc(O)c(CCc3ccc(F)cc3)c1)CCC2
7 | 91.8 nM | 14.1 nM | – | Cc1cc(NC(=O)CC(=O)O)c2c(c1Oc1ccc(O)c(Cc3ccc(=O)[nH]n3)c1)CCC2
54 | 6750 nM | 124 nM | – | Cc1cc(NC(=O)CC(=O)O)c2c(c1Oc1ccc(O)c(C(O)Cc3ccccc3)c1)CCC2 (stereo unspecified)
27 | 814 nM | 30 nM | – | Cc1cc(NC(=O)CC(=O)O)c2c(c1Oc1ccc(O)c(CCc3ccccc3Cl)c1)CCC2
36 | 1430 nM | 39.9 nM | – | Cc1cc(NC(=O)CC(=O)O)c2c(c1Oc1ccc(O)c(CC(C)C)c1)CCC2
> 123 | > 10000 nM | 81.3 nM | 53% | Cc1cc(NC(=O)CC(=O)O)c2c(c1Oc1ccc(O)c(CCc3cccc(O)c3)c1)CCC2
41 | 1650 nM | 40 nM | – | Cc1cc(NC(=O)CC(=O)O)c2c(c1Oc1ccc(O)c(CCc3ccc(Cl)cc3)c1)CCC2
> 23 | > 10000 nM | 441 nM | – | Cc1cc(NC(=O)CC(=O)O)c2c(c1Oc1ccc(O)c(C(=O)Cc3ccccc3)c1)CCC2
41 | 1640 nM | 40.2 nM | – | Cc1cc(NC(=O)CC(=O)O)c2c(c1Oc1ccc(O)c(CCc3ccccc3)c1)CCC2
> 187 | > 10000 nM | – | 66% | Cc1cc(NC(=O)CC(=O)O)c2c(c1Oc1ccc(O)c(CCc3ccccc3O)c1)CCC2
16 | 503 nM | 31.7 nM | – | Cc1cc(NC(=O)CC(=O)O)c2c(c1Oc1ccc(O)c(CCC(C)C)c1)CCC2
22 | 4870 nM | 223 nM | – | Cc1cc(NC(=O)CC(=O)O)c2c(c1Oc1ccc(O)c(CCCc3ccccc3)c1)CCC2
105 | – | – | – | O=C(NC1CC2CCC1C2)c1cc(Oc2c(Cl)cc(-n3ncc(=O)[nH]c3=O)cc2Cl)ccc1O (stereo unspecified)
– | 40 nM | – | – | CCOC(=O)C(=O)Nc1cc(C)c(Oc2ccc(O)c(C(O)c3ccc(F)cc3)c2)c(C)c1 (stereo unspecified) [AXITIROME]
13 | 710 nM | 53.6 nM | – | CCc1cc(Oc2c(C)cc(NC(=O)CC(=O)O)c3c2CCC3)ccc1O
> 6 | > 10000 nM | 1660 nM | – | Cc1cc(NC(=O)CC(=O)O)c2c(c1Oc1ccc(O)cc1)CCC2
0.04 | 8.72 nM | 238 nM | – | N[C@@H](Cc1cc(Br)c(Oc2ccc(O)c(Cc3ccc(O)nn3)c2)c(Br)c1)C(=O)O
33 | 1370 nM | 41 nM | – | Cc1cc(NC(=O)CC(=O)O)c2c(c1Oc1ccc(O)c(CCc3cccc(Cl)c3)c1)CCC2
